How the values were obtained:
[1] = system: TNFα production in plasma; test: In vivo TNFα model in Wistar rat; conditions: po, 1.5 h, 10 mg/kg p.o. 30 min before LPS i.p., plasma TNFα 90 min after LPS, male Wistar rats, read-out: % Inhibition to 10 mg/kg
Excerpt: The TFNα is a cytokin playing a central role in inflammation mechanisms. Its production may be induced by injection of lipopolysaccharid (LPS). It has been shown that the intracellular AMPc increase, produced in particular by PDE4 inhibitors, decreases the TNFα production in in vitro and in vivo models. Therefore it matters here to quantify in vivo anti-inflammatory potential of the compounds of the invention, administrated by oral route (p.o.) by measuring inhibition of TNFα production in plasma in rat, the latter having received a intraperitoneal injection (i.p.) of lipolysaccharid (LPS). The treatment by the compounds of the invention or the carrier is administrated by oral route in male Wistar rats, 30 min. before LPS injection. The rats are sacrificed 90 min. after LPS stimulation, the blood is harvested on EDTA and TNFα concentration is measured in each plasma sample.

[2] = system: TNFα production by human leukocytes; test: Inhibition of TNFα production by human leukocytes stimulated by lipopolysaccharid; type: cell-based; conditions: Leukocyte; LPS-stimulated human leukocytes in 75% human serum; TNFα by ELISA after 15-18 hours
Experimental: This test aims to evaluate capacity of the compounds of the invention to inhibit TNFα (tumor necrosis-α) production by human leukocytes in the presence of high human serum concentration (75%). […] The test described here is based on the use of human leukocytes cultivated in 75% of human serum. It had been previously documented that these conditions simulate the observed situation when TNFα dosage is performed in human blood.
The compounds to test are dissolved into 20 mM (sometimes 6 mM) of DMSO. 100 μl of DMSO are distributed into 7 wells of a a 96 well microtiter plate (wells B to H). 150 μl of the compound solution are distributed into line A wells. 50 μl are then sequentially transferred 7 times. 20 μl of this serial dilutions of compounds are sequentially transferred twice in wells containing 180 μl of RPMI 1640 (Gibco). 50 μl of these dilutions are then transferred in wells where cells will be added.
Each test includes a series of eight wells without LPS (100% of inhibition), eight wells with LPS (0% of inhibition) and a series of Rolipram dilutions in order to enable comparison of the tests between each other and then to evaluate their variability.
A leukocyte vial is unfrozen in bain-marie (37° C.), its content is transferred into a 15 ml tube containing 10 ml of RPMI added with 5% of human serum (RPMI-5% HS). The cells are sedimented (800 g, 6 minutes, 4° C.), resuspended in 10 ml of the same medium and counted by dilution in Trypan blue solution. After centrifugating (800 g, 6 minutes, 4° C.), the cells are resuspended to 2×10^6/ml in human serum.
To 50 μl aliquots of different dilutions of compounds, 100 μl of cells are added. The plates are then incubated 30 minutes at 37° C., then 50 μl of solution 4 μg/ml of LPS prepared in human serum are added. The plates are incubated for the night at 37° C.
After incubation for 15-18 hours, 90 μl of growth supernatant are taken and transferred into rounded-bottom microtiter wells. The TNFα presence is then evaluated by ELISA (Pharmingen) by using 50 μl of supernatant. The protocol described by the manufacturer is strictly applied.

[3] = molecular target: type 4 phosphodiesterases (PDE4); test: Inhibition of the phosphodiesterase (PDE4), enzymatic preparation from line U937; type: biochemical; conditions: PDE4 from cytosolic preparation of human cell line U937
Experimental: The capacity of the formula (I) compounds of the invention to inhibit the cyclic nucleotide phosphodiesterases is evaluated by their Cl50 measurement (necessary concentration to inhibit 50% of enzymatic activity).
The type 4 phosphodiesterases are obtained from a cytosolic preparation extracted from the human origin cellular line U937 according to a method adapted from T. J. Torphy and al., 1992, J.Pharm.Exp. Ther. 263: 1195-1205
The other classes of phosphodiesterases are obtained after partial purification FPLC on Mono Q column. (anion exchange column) according to a method adapted from Lavan B. E., Lakey T., Houslay M. D. Biochemical Pharmacology, 1989, 38(22), 4123-4136., and from Silver P. J and al., 1988, Eur.J. Pharmacol. 150: 85-94, either, from human origin cellular lines for PDE 1 (monocytar line TPH1) and PDE5 (line MCF7 issued from an adenocarcinoma), or from dog aorta for PDE 3, or for the human PDE3A, from gene cloning in insect cells SF21 in baculovirus, according to a method adapted from Luckow, V. A. and al., 1991 in Recombinant DNA Technology&Applications.,eds. Prokop, Bajpai,R. K.&Ho,C. S., pp97-152. The enzymatic activity measurement of the different PDE classes, and in particular the PDE 4, is performed according to a method adapted from W. J. Thompson and al. 1979, Advances in Cyclic Nucleotide Research, Vol. 10: 69-92, ed. G. Brooker and al. Raven Press, NY.
For the Cl50 determination, the enzymatic activity is measured in the presence of inhibitor within concentration margins of 0.1 to 100 μM.
The following table illustrates the PDE4 inhibitory activity from enzymatic preparation obtained from the line U937.

| IC50 [2] | IC50 [3] | melting point | SMILES | change in vivo at 10 mg/kg [1] |
| --- | --- | --- | --- | --- |
| 8.1 µM | 77 nM | 155 °C | Cc1ccc2c(c1)c(=O)n(CC=Cc1cccnc1)c1nnc(N(C)C)n21 [Compound 104, 1-Dimethylamino-7-methyl-4-(3-pyridin-3-yl-allyl)-4H-[1,2,4]triazolo[4,3-a]quinazolin-5-one] | -94% |
| – | 28 nM | 201 °C | Nc1ccc2c(c1)c(=O)n(C/C=C/c1cccnc1)c1nnc(N3CCCC3)n21 [Compound 227, 7-Amino-4-((E)-3-pyridin-3-yl-allyl)-1-pyrrolidin-1-yl-4H-[1,2,4]triazolo[4,3-a]quinazolin-5-one] | – |
| – | 80 nM | 198 °C | CN(C)c1nnc2n(C/C=C/c3ccccc3)c(=O)c3cc(N)ccc3n12 [Compound 229, 7-Amino-1-dimethylamino-4-((E)-3-phenyl-allyl)-4H-[1,2,4]triazolo[4,3-a]quinazolin-5-one] | – |
| – | 2 nM | 171 °C | CNc1ccc2c(c1)c(=O)n(Cc1ccccc1)c1nnc(N3CCCC3)n21 [Compound 230, 4-Benzyl-7-methylamino-1-pyrrolidin-1-yl-4H-[1,2,4]triazolo[4,3-a]quinazolin-5-one] | – |
| – | 0.27 nM | 270 °C | CNc1ccc2c(c1)c(=O)n(Cc1ccc(C#N)cc1)c1nnc(N3CCCC3)n21 [Compound 231, 4-(7-Methylamino-5-oxo-1-pyrrolidin-1-yl-5H-[1,2,4]triazolo[4,3-a]quinazolin-4-ylmethyl)-benzonitrile] | – |
| – | 180 nM | 225 °C | CCNc1ccc2c(c1)c(=O)n(Cc1ccccc1)c1nnc(N3CCCC3)n21 [Compound 233, 4-Benzyl-7-ethylamino-1-pyrrolidin-1-yl-4H-[1,2,4]triazolo[4,3-a]quinazolin-5-one] | – |
| – | 11 nM | 202 °C | CN(C)C(=O)Cc1ccc(Cn2c(=O)c3cc(Br)ccc3n3c(N4CCCC4)nnc23)cc1 [Compound 242, 2-[4-(7-Bromo-5-oxo-1-pyrrolidin-1-yl-5H-[1,2,4]triazolo[4,3-a]quinazolin-4-ylmethyl)-phenyl]-N,N-dimethyl-acetamide] | – |
| – | 28 nM | 229 °C | O=C(Cc1ccc(Cn2c(=O)c3cc(Br)ccc3n3c(N4CCCC4)nnc23)cc1)NO [Compound 243, 2-[4-(7-Bromo-5-oxo-1-pyrrolidin-1-yl-5H-[1,2,4]triazolo[4,3-a]quinazolin-4-ylmethyl)-phenyl]-N-hydroxy-acetamide] | – |
| – | 41 nM | 133 °C | Cc1ccc2c(c1)c(=S)n(CC=Cc1cccnc1)c1nnc(N(C)C)n21 [Compound 246, 1-Dimethylamino-7-methyl-4-(3-pyridin-3-yl-allyl)-4H-[1,2,4]triazolo[4,3-a]quinazoline-5-thione] | – |

The remaining lines, values behind:

| SMILES | IC50 [2] | IC50 [3] | melting point | change in vivo at 10 mg/kg [1] |
| --- | --- | --- | --- | --- |
| CN(C)c1nnc2n(C/C=C/c3cccnc3)c(=O)c3cc(Br)ccc3n12 [Compound 3, 7-Bromo-1-dimethylamino-4-((E)-3-pyridin-3-yl-allyl)-4H-[1,2,4]triazolo[4,3-a]quinazolin-5-one] | 3.4 µM | 79 nM | – | -98% |
| COc1ccc(Cn2c(=O)c3cc(Br)ccc3n3c(N4CCCCCC4)nnc23)cc1OC [Compound 35, 1-Azepan-1-yl-7-bromo-4-(3,4-dimethoxy-benzyl)-4H-[1,2,4]triazolo[4,3-a]quinazolin-5-one] | – | 20 nM | 185 °C | -51% |
| N#Cc1ccc(Cn2c(=O)c3cc(Br)ccc3n3c(N4CCCC4)nnc23)cc1 [Compound 46, 4-(7-Bromo-5-oxo-1-pyrrolidin-1-yl-5H-[1,2,4]triazolo[4,3-a]quinazolin-4-ylmethyl)-benzonitrile] | – | 90 nM | 116 °C | -58% |
| CN(C)c1nnc2n(Cc3ccc(C#N)cc3)c(=O)c3cc(Br)ccc3n12 [Compound 79, 4-(7-Bromo-1-dimethylamino-5-oxo-5H-[1,2,4]triazolo[4,3-a]quinazolin-4-ylmethyl)-benzonitrile] | 5.2 µM | 140 nM | 207 °C | -72% |
| CN(C)c1nnc2n(CC=Cc3ccccc3)c(=O)c3cc(Br)ccc3n12 [Compound 85, 7-Bromo-1-dimethylamino-4-(3-phenyl-allyl)-4H-[1,2,4]triazolo[4,3-a]quinazolin-5-one] | 6.8 µM | 41 nM | 171 °C | -77% |
| Cc1ccc2c(c1)c(=O)n(Cc1cccnc1)c1nnc(N3CCCCCC3)n21 [Compound 91, 1-Azepan-1-yl-7-methyl-4-pyridin-3-ylmethyl-4H-[1,2,4]triazolo[4,3-a]quinazolin-5-one] | – | – | 175 °C | -70% |
| Cc1ccc2c(c1)c(=O)n(Cc1ccc(C#N)cc1)c1nnc(N3CCCC3)n21 [Compound 93, 4-(7-Methyl-5-oxo-1-pyrrolidin-1-yl-5H-[1,2,4]triazolo[4,3-a]quinazolin-4-ylmethyl)-benzonitrile] | 4.3 µM | – | 166 °C | -67% |
| COc1ccc(Cn2c(=O)c3cc(C)ccc3n3c(N4CCCC4)nnc23)cc1OC [Compound 94, 4-(3,4-Dimethoxy-benzyl)-7-methyl-1-pyrrolidin-1-yl-4H-[1,2,4]triazolo[4,3-a]quinazolin-5-one] | 6.3 µM | 29 nM | 184 °C | -87% |
| Cc1ccc2c(c1)c(=O)n(CC=Cc1ccccc1)c1nnc(N3CCCC3)n21 [Compound 98, 7-Methyl-4-(3-phenyl-allyl)-1-pyrrolidin-1-yl-4H-[1,2,4]triazolo[4,3-a]quinazolin-5-one] | – | 29 nM | 173 °C | -75% |
| Cc1ccc2c(c1)c(=O)n(Cc1ccc(C#N)cc1)c1nnc(N(C)C)n21 [Compound 101, 4-(1-Dimethylamino-7-methyl-5-oxo-5H-[1,2,4]triazolo[4,3-a]quinazolin-4-ylmethyl)-benzonitrile] | 8.6 µM | – | 201 °C | -80% |
| Cc1ccc2c(c1)c(=O)n(C/C=C/c1ccccc1)c1nnc(N(C)C)n21 [Compound 103, 1-Dimethylamino-7-methyl-4-((E)-3-phenyl-allyl)-4H-[1,2,4]triazolo[4,3-a]quinazolin-5-one] | 10.7 µM | 39 nM | 171 °C | – |
| O=c1c2cc(Br)ccc2n2c(N3CCCCCC3)nnc2n1Cc1ccccc1 [Compound 163, 1-(azepan-1-yl)-4-benzyl-7-bromo-4H-[1,2,4]triazolo[4,3-a]-quinazolin-5-one] | – | – | – | -64% |
